# Assay results taken from patent US20140024638A1, “TREATMENT OF COGNITIVE DYSFUNCTION IN SCHIZOPHRENIA” (TARGACEPT, INC., priority 2011, published 2014).
# Tests used:
# [1] = test system: patients with schizophrenia; experiment: Subject Global Impression - Cognition scale (SGI-Cog), Phase 2 trial; type: in vivo, human; conditions: for SGI-COGNITION TOTAL BY PATIENT: Adjusted Mean / SGI-COGNITION TOTAL BY PATIENT: Mean Difference ± SE between TC-5619 and Placebo (Placebo-TC5619): All Patients; for SGI-Cog: Mean (SE): tobacco users; for SGI-Cog: Mean (SEM): total population
# Method: (§1) The double blind, placebo controlled Phase 2 trial was conducted at 7 sites in the United States and 12 sites in India. […] Of the randomized patients, approximately 69% were male and approximately 46% were users of tobacco products. […] The primary efficacy outcome measure was GMLT, and the trial included a number of other scales as secondary efficacy outcome measures.
# [2] = test system: patients with schizophrenia; experiment: CogState Schizophrenia Battery Composite score, Phase 2 trial; type: in vivo, human; conditions: for CogState Composite score: Mean (SE): tobacco users meeting data integrity criteria; for CogState Composite score: Mean (SEM): total population, subjects meeting data integrity criteria
# Method: As provided in the above-referenced brochure, CogState is a provider of cognitive testing products and services that predominantly caters to the global pharmaceutical industry. The Schizophrenia Cognitive Test Battery covers all domains identified by MATRICS initiative; requires around 35 minutes for administration; is sensitive to the effects of novel compounds and licensed medication; is sensitive to the effects of medication in groups or individual patients; and the outcome measures are related to functional status.
# as §1
# [3] = test system: patients with schizophrenia; experiment: CogState Detection task (psychomotor speed), Phase 2 trial; type: in vivo, human; conditions: for CogState Detection: Mean (SE): tobacco users meeting data integrity criteria; for CogState Detection: Mean (SEM): total population, subjects meeting data integrity criteria
# Method: as §1
# [4] = test system: patients with schizophrenia; experiment: CogState 1-Back task (working memory), Phase 2 trial; type: in vivo, human; conditions: for CogState 1-Back: Mean (SE): tobacco users meeting data integrity criteria; for CogState 1-Back: Mean (SEM): total population, subjects meeting data integrity criteria
# Method: as §1
# [5] = test system: patients with schizophrenia; experiment: CogState Social-Emotional Cognition task, Phase 2 trial; type: in vivo, human; conditions: for CogState Social-Emotional Cognition: Mean (SE): tobacco users meeting data integrity criteria; for CogState Social-Emotional Cognition: Mean (SEM): total population, subjects meeting data integrity criteria
# Method: as §1
# [6] = test system: patients with schizophrenia; experiment: CogState International Shopping List (verbal learning), Phase 2 trial; design: species or system human; conditions: in vivo
# Method: as §1
# [7] = test system: healthy volunteers; experiment: phase 1 trials in healthy volunteers; type: in vivo, human
# [8] = biological target: α7 NNR receptor (Homo sapiens, UniProt P36544); experiment: agonism at the α7 NNR receptor; type: biochemical
# [9] = in vivo; cited from earlier work
# [10] = Week 8, 5 mg daily, 1-tailed p = 0.491
# Sequence of α7 NNR receptor (P36544 23-502): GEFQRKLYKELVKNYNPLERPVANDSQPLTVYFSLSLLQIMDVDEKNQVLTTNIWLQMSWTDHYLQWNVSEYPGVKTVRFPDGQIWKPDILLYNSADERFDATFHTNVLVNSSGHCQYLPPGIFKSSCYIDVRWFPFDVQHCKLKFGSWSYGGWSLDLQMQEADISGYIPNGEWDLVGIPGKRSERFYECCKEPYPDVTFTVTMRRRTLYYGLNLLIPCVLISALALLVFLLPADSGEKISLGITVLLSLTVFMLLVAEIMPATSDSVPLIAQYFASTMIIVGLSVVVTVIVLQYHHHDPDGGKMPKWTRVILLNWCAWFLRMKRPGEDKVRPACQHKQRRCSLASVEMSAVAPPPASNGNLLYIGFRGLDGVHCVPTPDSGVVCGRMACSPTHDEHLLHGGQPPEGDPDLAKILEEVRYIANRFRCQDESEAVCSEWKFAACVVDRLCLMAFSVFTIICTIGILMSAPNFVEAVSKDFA
compound,measurement,setting,value
"O=C(N[C@@H]1C2CCN(CC2)[C@H]1Cc1cccnc1)c1cc2ccccc2o1 (single isomer, unassigned) [TC-5619]",SGI-COGNITION TOTAL BY PATIENT: Adjusted Mean,"[1]; Week 1, 1 mg daily, SE 0.19, placebo 11.37",11.18
same,SGI-COGNITION TOTAL BY PATIENT: Mean Difference ± SE between TC-5619 and Placebo (Placebo-TC5619),"[1]; Week 1, 1 mg daily, one-sided 90% CI (−0.07, ∞), one-sided P 0.1757",0.19 ± 0.20
same,SGI-COGNITION TOTAL BY PATIENT: Adjusted Mean,"[1]; Week 4, 1 mg daily, SE 0.24, placebo 10.65",10.60
same,SGI-COGNITION TOTAL BY PATIENT: Mean Difference ± SE between TC-5619 and Placebo (Placebo-TC5619),"[1]; Week 4, 1 mg daily, one-sided 90% CI (−0.31, ∞), one-sided P 0.4282",0.05 ± 0.28
same,SGI-COGNITION TOTAL BY PATIENT: Adjusted Mean,"[1]; Week 8, 5 mg daily, SE 0.29, placebo 9.80",9.79
same,SGI-COGNITION TOTAL BY PATIENT: Mean Difference ± SE between TC-5619 and Placebo (Placebo-TC5619),"[1]; Week 8, 5 mg daily, one-sided 90% CI (−0.45, ∞), one-sided P 0.4914",0.01 ± 0.36
same,SGI-COGNITION TOTAL BY PATIENT: Adjusted Mean,"[1]; Week 12, 25 mg daily, SE 0.31, placebo 9.61",8.95
same,SGI-COGNITION TOTAL BY PATIENT: Mean Difference ± SE between TC-5619 and Placebo (Placebo-TC5619),"[1]; Week 12, 25 mg daily, one-sided 90% CI (−0.16, ∞), one-sided P 0.0455",0.66 ± 0.39
same,"Subject Global Impression - Cognition scale, result in words","[1]; secondary outcome measure, patient self-assessment of cognitive change",encouraging efficacy signals
same,SGI-Cog: Mean (SE),"[1]; Week 4, 1 mg daily, 1-tailed p = 0.606",−0.13 (0.47); p = 0.606
same,SGI-Cog: Mean (SE),"[1]; Week 8, 5 mg daily, 1-tailed p = 0.314",0.24 (0.49); p = 0.314
same,SGI-Cog: Mean (SE),"[1]; Week 12, 25 mg daily, 1-tailed p = 0.109",0.65 (0.52); p = 0.109
same,SGI-Cog: Mean (SEM),"[1]; Week 4, 1 mg daily, 1-tailed p = 0.428",0.05 (0.28); p = 0.428
same,SGI-Cog: Mean (SEM),[1]; [10],0.01 (0.36); p = 0.491
same,SGI-Cog: Mean (SEM),"[1]; Week 12, 25 mg daily, 1-tailed p = 0.046",0.66 (0.39); p = 0.046
same,"CogState composite score, result in words",[2]; in vivo,statistically significant results of improvement
same,CogState Composite score: Mean (SE),"[2]; Week 4, 1 mg daily, 1-tailed p = 0.471",0.007 0.099); p = 0.471
same,CogState Composite score: Mean (SE),"[2]; Week 8, 5 mg daily, 1-tailed p = 0.614",−0.029 (0.101); p = 0.614
same,CogState Composite score: Mean (SE),"[2]; Week 12, 25 mg daily, 1-tailed p = 0.098",0.129 0.100); p = 0.098 ^
same,CogState Composite score: Mean (SEM),"[2]; Week 4, 1 mg daily, 1-tailed p = 0.838",−0.066 (0.066); p = 0.838
same,CogState Composite score: Mean (SEM),"[2]; Week 8, 5 mg daily, 1-tailed p = 0.821",−0.062 .068); p = 0.821^
same,CogState Composite score: Mean (SEM),"[2]; Week 12, 25 mg daily, 1-tailed p = 0.326",0.030 0.067); p = 0.326 ^
same,"CogState detection (psychomotor speed), result in words",[3]; in vivo,statistically significant results of improvement
same,CogState Detection: Mean (SE),"[3]; Week 4, 1 mg daily, 1-tailed p = 0.254",−0.014 (0.021); p = 0.254
same,CogState Detection: Mean (SE),[3]; [10],−0.000 (0.021); p = 0.491
same,CogState Detection: Mean (SE),"[3]; Week 12, 25 mg daily, 1-tailed p = 0.265",−0.013 0.021); p = 0.265 ^
same,CogState Detection: Mean (SEM),"[3]; Week 4, 1 mg daily, 1-tailed p = 0.693",0.007 (0.015); p = 0.693
same,CogState Detection: Mean (SEM),"[3]; Week 8, 5 mg daily, 1-tailed p = 0.650",0.006 (0.014) p = 0.650^
same,CogState Detection: Mean (SEM),"[3]; Week 12, 25 mg daily, 1-tailed p = 0.567",0.002 (0.015) p = 0.567^
same,"CogState 1-back (working memory), result in words",[4]; in vivo,statistically significant results of improvement
same,CogState 1-Back: Mean (SE),"[4]; Week 4, 1 mg daily, 1-tailed p = 0.605",0.005 (0.021); p = 0.605
same,CogState 1-Back: Mean (SE),"[4]; Week 8, 5 mg daily, 1-tailed p = 0.329",−0.009 (0.021); p = 0.329
same,CogState 1-Back: Mean (SE),"[4]; Week 12, 25 mg daily, 1-tailed p = 0.020",−0.042 (0.020); p = 0.020
same,CogState 1-Back: Mean (SEM),"[4]; Week 4, 1 mg daily, 1-tailed p = 0.691",0.007 (0.014); p = 0.691
same,CogState 1-Back: Mean (SEM),"[4]; Week 8, 5 mg daily, 1-tailed p = 0.647",0.005 (0.015); p = 0.647
same,CogState 1-Back: Mean (SEM),"[4]; Week 12, 25 mg daily, 1-tailed p = 0.042",−0.024 (0.014); p = 0.042
same,CogState Social-Emotional Cognition: Mean (SE),"[5]; Week 4, 1 mg daily, 1-tailed p = 0.632",−0.010 (0.028); p = 0.632
same,CogState Social-Emotional Cognition: Mean (SE),"[5]; Week 8, 5 mg daily, 1-tailed p = 0.625",−0.009 (0.029); p = 0.625
same,CogState Social-Emotional Cognition: Mean (SE),"[5]; Week 12, 25 mg daily, 1-tailed p = 0.752",−0.019 (0.027); p = 0.752
same,CogState Social-Emotional Cognition: Mean (SEM),"[5]; Week 4, 1 mg daily, 1-tailed p = 0.259",0.013 (0.020); p = 0.259
same,CogState Social-Emotional Cognition: Mean (SEM),"[5]; Week 8, 5 mg daily, 1-tailed p = 0.217",0.015 (0.020); p = 0.217
same,CogState Social-Emotional Cognition: Mean (SEM),"[5]; Week 12, 25 mg daily, 1-tailed p = 0.546",−0.002 (0.020); p = 0.546
same,"CogState International Shopping List (verbal learning), result in words",[6],statistically significant results of improvement
same,attention,[7]; 6.7 mg administered,robust improvement in attention
same,tolerability,[7]; phase 1 trials,generally well tolerated
same,agonist character at the α7 NNR,"[8]; listed as (2S,3R)—N-(2-((3-pyridinyl)methyl)-1-azabicyclo[2.2.2]oct-3-yl)benzofuran-2-carb",selective alpha7 NNR agonist
same,agonist character at the α7 NNR,[8]; listed as Compound A,"highly selective, full agonist"
same,separation between EC50 and the IC50 (for residual inhibition),[8]; α7 NNR receptor,good separation
same,efficacy in preclinical models of schizophrenia,[9],effective
